Measured values taken from paper PMC4775997, “Imidazopyridazine Inhibitors of Plasmodium falciparum Calcium-Dependent Protein Kinase 1 Also Target Cyclic GMP-Dependent Protein Kinase and Heat Shock Protein 90 To Kill the Parasite at Different Stages of Intracellular Development” (Antimicrobial Agents and Chemotherapy, 2016).
Like-named read-outs stand apart in the source and are kept apart here.

Tests used:
[1] = target: T1, CDPK1 T145G (Plasmodium falciparum, UniProt P62344, T145G); assay: ParM ADP biosensor assay, CDPK1 T145G; assay type: biochemical
T1 construct: PfCDPK1 and PfCDPK1 T145G proteins were produced using methods described elsewhere; made in house

[2] = test system: 3D7 CDPK1 T145T-HA; assay: SYBR green assay, 3D7 CDPK1 T145T-HA line; assay type: cell-based; conditions: Plasmodium falciparum, 3D7, read-out: EC50, 3D7 CDPK1 T145T-HA
Protocol: (§1) Aliquots of 100 μl of P. falciparum cultures 24 h after erythrocyte invasion were transferred into 96-well culture dishes. Cells were incubated with inhibitors for 48 or 96 h (starting parasitemias were 0.3% and 0.03%, respectively). All drug treatments were carried out in duplicate at a final dimethyl sulfoxide (DMSO) concentration of 0.05%. After incubation, a modification of a previously described SYBR green assay was performed ([27]). Cells were lysed by the addition of 25 μl of buffer (20 mM Tris-HCl, pH 8.0, 2 mM EDTA, pH 8.0, 1.6% Triton X-100, 0.16% saponin, 10× SYBR green I [Life Technologies]). After incubation in the dark for 2 h, fluorescence of the samples was determined using a FLUOStar Omega plate reader (BMG Labtech) with excitation and emission filters of 485 nm and 520 nm, respectively. EC50s were calculated from a four-parameter logistical fit of the data using Prism software (GraphPad Software, Inc.).
(§2) Parasites expressing CDPK1 T145G and CDPK1 T145T were generated as described previously ([28]). Briefly, a region of homology to facilitate integration of the plasmid via single-crossover homologous recombination was amplified from P. falciparum 3D7 genomic DNA at 194 bp upstream of the ATG to bp 435 of the open reading frame using primers 1 and 2 for the wild-type (WT) version and primers 1 and 3 for the glycine version. […]

[3] = test system: 3D7 CDPK1 T145G-HA; assay: SYBR green assay, 3D7 CDPK1 T145G-HA line; assay type: cell-based; conditions: Plasmodium falciparum, 3D7, read-out: EC50, 3D7 CDPK1 T145G-HA
Protocol: as §1, §2

[4] = target: WT CDPK1 (Plasmodium falciparum, UniProt P62344); assay: biochemical
[5] = test system: P. falciparum 3D7; assay: SYBR green I growth assay, wild-type parasites; assay type: cell-based, Plasmodium falciparum; conditions: Plasmodium falciparum
[6] = target: T2, PfPKG (Plasmodium falciparum, UniProt Q8I719); assay: Microfluidic fluorescent shift assay of cGMP-dependent protein kinase activity; assay type: biochemical
T2 construct: plasmids (pTrcHisC) encoding full-length PfPKG and PfPKG T618Q with N-terminal His tags; His tag (N); made in house; host or cells: E. coli Rosetta2(DE3)

[7] = target: T3, PfPKG T618Q (Plasmodium falciparum, UniProt Q8I719, T618Q); assay: biochemical; assay type: biochemical
T3 construct: plasmids (pTrcHisC) encoding full-length PfPKG and PfPKG T618Q with N-terminal His tags; His tag (N); made in house; host or cells: E. coli Rosetta2(DE3)

[8] = test system: 3D7 PKG T618Q; assay: microbe, parasite or virus in culture; assay type: cell-based, Plasmodium falciparum; conditions: Plasmodium falciparum, 3D7, 96 h, read-out: Parasite inhibition EC50, 3D7 PKG T618Q
[9] = target: PfHSP90 (Plasmodium falciparum, UniProt Q8IC05); assay: Tryptophan fluorescence binding, full-length PfHSP90
Protocol: (§3) The PCR product was cloned into pRSET-A (Life Technologies) between the BamHI and XhoI sites. Positive clones were confirmed by restriction digestion and sequencing. The clone was transformed into Escherichia coli Rosetta(pLysS) cells, and protein was expressed by induction with 0.1 mM isopropyl β-D-1-thiogalactopyranoside (IPTG) at 37°C for 2 h. PfHSP90 proteins were purified using Ni-nitrilotriacetic acid (NTA) affinity chromatography (Qiagen) as described in the manufacturer's protocol.
Tryptophan fluorescence analysis was performed using a PerkinElmer LS55 luminescence spectrometer. […] The binding buffer used for the reaction contained 50 mM Tris-HCl, pH 7.4, and 1 mM EDTA. Samples were excited at 280 nm, and tryptophan fluorescence measurements were carried out by scanning the emission spectrum in the wavelength range 300 to 400 nm. A maximum wavelength (λmax) of 346 nm was selected for all the calculations. The slit widths of excitation and emission were set at 2.5 and 5 nm, respectively. The difference in fluorescence intensity between protein alone and protein with various concentrations of 17-AAG or compound D was calculated and plotted against the different concentrations of the respective ligand used. The resultant hyperbolic curve was analyzed with GraphPad Prism software, using nonlinear regression analysis with single-site-specific binding as described previously ([32]).

[10] = target: PfHSP90-NTD (Plasmodium falciparum, UniProt Q8IC05); assay: Tryptophan fluorescence binding, PfHSP90 N-terminal domain
Description: PfCDPK1 and PfCDPK1 T145G proteins were produced using methods described elsewhere ([23]). The PfHSP90 N-terminal domain (NTD) comprises the first 223 amino acids of PfHSP90. This region was amplified from the full-length PfHSP90-pRSET-A construct ([32]) using the following primers: primer 7, […]; primer 8, […].
as §3, with “PfHSP90 proteins were purified using Ni-nitrilotriacetic acid (NTA) affinity chromatography (Qiagen) as described in the manufacturer's protocol.” left out
Tryptophan fluorescence analysis was performed using a PerkinElmer LS55 luminescence spectrometer. […] Samples were excited at 280 nm, and tryptophan fluorescence measurements were carried out by scanning the emission spectrum in the wavelength range 300 to 400 nm. […] The difference in fluorescence intensity between protein alone and protein with various concentrations of 17-AAG or compound D was calculated and plotted against the different concentrations of the respective ligand used. The resultant hyperbolic curve was analyzed with GraphPad Prism software, using nonlinear regression analysis with single-site-specific binding as described previously ([32]).

[11] = test system: trophozoite cell lysate; assay: Affinity purification of targets of biotinylated compound D, LC-MS/MS; assay type: binding, Plasmodium falciparum; conditions: biotin linked to R1 group of compound D, streptavidin-agarose
Protocol: A total of 200 μl of high-capacity streptavidin agarose (Thermo Scientific) was resuspended in 1 ml of 250 μg/ml biotinylated compound D solution or a DMSO control. After incubation with mixing for 1 h at room temperature, unbound compound was removed by extensive washing with phosphate-buffered saline (PBS). The resin was incubated with trophozoite lysate containing 2 mg of protein in a total volume of 1.5 ml overnight at 4°C. The lysate was prepared by resuspending trophozoites in 20 mM Tris-HCl, pH 8.0, 10 mM MgCl2, 250 mM NaCl, 0.5 mM tris(2-carboxyethyl)phosphine (TCEP), 1× protein phosphatase inhibitor (Sigma-Aldrich), 1× complete protease inhibitors (Roche), and 0.1% Triton X-100 (Sigma-Aldrich). Insoluble proteins were removed by centrifugation at 15,000 × g for 20 min, and protein was quantitated using a detergent-compatible (DC) protein assay (Bio-Rad). […]
Proteins were run 4 mm into a 10% NuPAGE Bis-Tris gel (Life Technologies) and then excised using a clean scalpel blade. […] The resulting digests were analyzed by liquid chromatography-tandem mass spectrometry (LC-MS/MS) using an Ultimate 3000 nanoRSLC high-performance liquid chromatograph (HPLC), equipped with a 50-cm by 75-μm Acclaim Pepmap C18 column, coupled to a linear trap quadrupole (LTQ) Orbitrap Velos Pro equipped with a Nanoflex electrospray source (all Thermo Scientific). […]

[12] = test system: P. falciparum 3D7; assay: Microscopic examination of Giemsa-stained smears (stage of action)

T1 sequence (P62344 whole entry T145G): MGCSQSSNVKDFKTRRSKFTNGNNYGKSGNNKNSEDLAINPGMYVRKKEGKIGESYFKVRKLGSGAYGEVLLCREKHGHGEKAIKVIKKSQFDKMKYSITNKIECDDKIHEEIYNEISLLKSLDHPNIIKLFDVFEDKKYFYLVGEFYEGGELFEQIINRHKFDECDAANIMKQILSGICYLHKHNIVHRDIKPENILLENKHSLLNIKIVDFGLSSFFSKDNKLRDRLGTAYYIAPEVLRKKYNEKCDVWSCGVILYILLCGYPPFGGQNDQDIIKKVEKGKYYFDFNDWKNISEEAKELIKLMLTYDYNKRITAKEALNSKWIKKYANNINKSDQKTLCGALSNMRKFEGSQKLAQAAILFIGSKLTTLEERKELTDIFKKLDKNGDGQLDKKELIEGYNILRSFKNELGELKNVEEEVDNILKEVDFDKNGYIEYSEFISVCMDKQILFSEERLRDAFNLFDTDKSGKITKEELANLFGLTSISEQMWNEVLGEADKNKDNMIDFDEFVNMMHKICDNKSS
T3 sequence (Q8I719 whole entry T618Q): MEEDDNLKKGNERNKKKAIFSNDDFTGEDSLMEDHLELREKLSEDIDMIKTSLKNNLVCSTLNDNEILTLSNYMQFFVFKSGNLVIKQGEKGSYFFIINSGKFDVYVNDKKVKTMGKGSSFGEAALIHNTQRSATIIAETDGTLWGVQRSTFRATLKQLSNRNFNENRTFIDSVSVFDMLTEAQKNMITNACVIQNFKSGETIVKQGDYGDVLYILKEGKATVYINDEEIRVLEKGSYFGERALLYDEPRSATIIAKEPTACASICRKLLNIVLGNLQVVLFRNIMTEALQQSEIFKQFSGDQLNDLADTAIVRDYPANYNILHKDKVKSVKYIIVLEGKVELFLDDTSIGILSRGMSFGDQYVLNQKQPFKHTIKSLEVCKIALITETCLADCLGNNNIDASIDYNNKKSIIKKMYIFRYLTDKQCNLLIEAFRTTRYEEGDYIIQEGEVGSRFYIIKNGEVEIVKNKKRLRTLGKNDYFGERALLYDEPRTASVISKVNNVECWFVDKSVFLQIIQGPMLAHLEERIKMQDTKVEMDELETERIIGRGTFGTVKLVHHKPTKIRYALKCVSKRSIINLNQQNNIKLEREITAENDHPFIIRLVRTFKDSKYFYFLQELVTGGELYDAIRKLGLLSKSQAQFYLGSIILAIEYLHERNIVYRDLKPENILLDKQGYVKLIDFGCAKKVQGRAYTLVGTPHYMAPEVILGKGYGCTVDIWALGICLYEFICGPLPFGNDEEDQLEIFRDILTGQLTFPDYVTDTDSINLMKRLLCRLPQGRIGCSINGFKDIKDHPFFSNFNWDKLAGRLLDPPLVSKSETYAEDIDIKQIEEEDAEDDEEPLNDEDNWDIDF
Sequence of PfHSP90-NTD (Q8IC05 entry or part of it): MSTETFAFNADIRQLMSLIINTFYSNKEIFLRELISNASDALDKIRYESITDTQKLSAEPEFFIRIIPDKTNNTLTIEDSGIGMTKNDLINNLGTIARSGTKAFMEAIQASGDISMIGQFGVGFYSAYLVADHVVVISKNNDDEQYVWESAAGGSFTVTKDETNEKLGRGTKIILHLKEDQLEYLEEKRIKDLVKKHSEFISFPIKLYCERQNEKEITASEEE
Sequence of PfHSP90 (Q8IC05 entry or part of it): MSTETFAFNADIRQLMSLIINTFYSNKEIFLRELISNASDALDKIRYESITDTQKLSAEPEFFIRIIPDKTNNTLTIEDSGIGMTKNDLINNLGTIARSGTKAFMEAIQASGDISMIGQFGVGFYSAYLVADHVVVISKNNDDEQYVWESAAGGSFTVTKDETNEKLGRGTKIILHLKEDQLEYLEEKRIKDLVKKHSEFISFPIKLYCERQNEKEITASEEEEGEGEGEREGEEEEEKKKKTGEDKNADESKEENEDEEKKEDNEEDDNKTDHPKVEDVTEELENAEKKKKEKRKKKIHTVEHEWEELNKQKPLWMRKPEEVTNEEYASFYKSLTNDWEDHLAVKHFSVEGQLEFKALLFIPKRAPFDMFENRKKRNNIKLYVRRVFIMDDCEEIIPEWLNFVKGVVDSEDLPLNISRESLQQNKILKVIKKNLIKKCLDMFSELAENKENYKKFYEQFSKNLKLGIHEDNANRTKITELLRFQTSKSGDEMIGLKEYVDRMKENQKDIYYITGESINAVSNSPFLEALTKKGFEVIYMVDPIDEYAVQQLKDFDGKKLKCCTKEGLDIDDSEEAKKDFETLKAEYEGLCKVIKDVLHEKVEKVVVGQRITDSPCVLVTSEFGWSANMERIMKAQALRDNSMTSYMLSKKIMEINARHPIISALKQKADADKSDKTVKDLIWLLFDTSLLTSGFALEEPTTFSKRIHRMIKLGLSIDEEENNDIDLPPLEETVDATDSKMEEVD
Sequence of WT CDPK1 (P62344 whole entry): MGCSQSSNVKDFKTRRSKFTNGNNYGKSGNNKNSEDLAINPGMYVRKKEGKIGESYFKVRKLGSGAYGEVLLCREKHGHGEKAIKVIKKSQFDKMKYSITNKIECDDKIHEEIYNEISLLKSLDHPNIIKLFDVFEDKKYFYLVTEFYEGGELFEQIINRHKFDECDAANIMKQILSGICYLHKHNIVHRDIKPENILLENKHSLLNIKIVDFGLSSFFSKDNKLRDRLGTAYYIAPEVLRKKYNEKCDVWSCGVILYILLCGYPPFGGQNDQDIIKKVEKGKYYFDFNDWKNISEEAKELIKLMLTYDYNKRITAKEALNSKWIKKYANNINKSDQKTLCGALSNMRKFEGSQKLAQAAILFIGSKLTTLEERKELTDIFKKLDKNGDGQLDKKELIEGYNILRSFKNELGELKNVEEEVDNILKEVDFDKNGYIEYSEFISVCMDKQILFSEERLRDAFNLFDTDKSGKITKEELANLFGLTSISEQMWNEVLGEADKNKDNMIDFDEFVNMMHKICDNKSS

Structure (SMILES) | IC50 [1] [nM] | Increase in sensitivity of CDPK1 T145G over wild-type enzyme ([1]; ratio of IC50s) [fold] | EC50 [2] [nM] | EC50 [3] [nM] | IC50 [4] [nM] | EC50 ([5]; 3D7, 48 h, Table S1, single experiment with duplicate samples, or mean of triplicate experiments (SD), read-out: EC50 48 hours) [nM] | EC50 ([5]; 3D7, 96 h, Table S1, single experiment with duplicate samples, or mean of triplicate experiments (SD), read-out: EC50 96 hours) [nM] | EC50 ([5]; 3D7, SYBR green I, 48 h incubation, mean of three independent experiments (SD), read-out: EC50 after treatment for 48 h) [nM] | EC50 ([5]; 3D7, SYBR green I, 96 h incubation, mean of three independent experiments (SD), read-out: EC50 after treatment for 96 h) [nM] | EC50 ([5]; 3D7, Table 2, SYBR green I, 96 h, single experiment, or mean (SD) of duplicate assays, read-out: Parasite inhibition EC50, 3D7) [nM] | IC50 [6] [nM] | IC50 [7] [nM] | EC50 [8] [nM] | Kd [9] [nM] | Kd [10] [nM] | Significant hit identified by LC-MS/MS [11] | Stage of action (before or after DNA synthesis) ([12]; Table S1, ring-stage parasites, 10x EC50 for 48 h) | Developmental arrest seen in smears ([12]; parasites about 21 h after invasion, 48 h at 10 times the EC50 determined by FACS (compound C 0.3 μM, compound D 4 μM)) | Stage of action ([12]; ring stage parasites treated with 10 times the 96-h EC50 for 48 h)
CC(C)(C)n1nc(-c2cccc3ccccc23)c2c(N)ncnc21 [NA-PP1, 1-(1,1-dimethylethyl)-3-(1-naphthalenyl)-1H-pyrazolo[3,4-d]pyrimidin-4-amine] | 150 | 41 | 14300 | 15600 | 6010 |  |  |  |  |  |  |  |  |  |  |  |  |  | 
CC(C)CCNc1ccc(-c2cnc3ccc(NC4CCN(C)CC4)nn23)cn1 [Compound 7] |  |  |  |  |  | 360 | 310 | 355 | 311 | 427 | 484 | 15500 | 477 | 6170 | 10700 | HSP90 | trophozoite | failed to develop beyond late rings/early trophozoites | Trophozoite
